Measurements: patent publication US12121536B2, “Strontium based compositions and formulations for pain, pruritus, and inflammation” (Galleon Labs LLC, priority 2015, dated 2024)
Values belong to the molecule of their own block, whether it stands above or below them.

Experiments:
[1] = Clinical observation: topical application, itching and erythema (flushing); type: in vivo, human; settings: for itching and erythema of skin: 1% in water solution, 4×2 inch patch on inside forearm, one subject
Procedure: BHB acts on the same pathway that causes flushing in individuals who take high doses of niacin. A topical formulation containing BHB was evaluated to see if it induced itching and erythema. The BHB formulation was compared to a topical niacin formulation.
A 1% BHB in water solution was made and a 1% niacin in water solution was made. Unknown to the subject, the BHB formula was applied in a 4×2 inch patch on the inside left forearm and the niacin formula was applied in a 4×2 in patch on the inside right forearm. The skin was evaluated over a period of time.

[2] = emulsions with more than about 6-7% salt (about 2% elemental strontium)
TCN [3] = test: Burning pain from acidic chemical peel (70% glycolic acid) mixed with strontium; type: in vivo; settings: strontium mixed with 70% glycolic acid, pH 0.6
Procedure: Nociceptors also have a CaSR that inhibits nociceptor activation when the extracellular concentration of calcium is raised above normal, or if a similar concentration of strontium is administered. […] When strontium is mixed with the acid, burning pain and stinging is suppressed by 80% or more so that any remaining sensory irritation is not bothersome.

IL-17 = molecular target: T1, IL-17 (Homo sapiens, UniProt Q16552); test: Preliminary investigations in psoriasis: IL-17
T1 sequence (Q16552 24-155): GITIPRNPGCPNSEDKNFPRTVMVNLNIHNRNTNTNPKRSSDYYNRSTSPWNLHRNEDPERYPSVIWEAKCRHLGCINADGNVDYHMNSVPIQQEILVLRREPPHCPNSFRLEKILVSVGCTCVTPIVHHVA
Source text: (§1) Preliminary investigations indicate that strontium can break up the inflammatory/keratinocyte cycle of psoriasis, specifically by blocking the IL-17 and TNF-alpha. By targeting and blocking the two main pathways that activated dendritic cells use to trigger a psoriatic episode, strontium has immense potential as a therapeutic for psoriasis.

TNF-alpha = TNF-alpha (Homo sapiens, UniProt P01375); test: Preliminary investigations in psoriasis: TNF-alpha
TNF-alpha, sequence (P01375 77-233 limits assumed, species assumed): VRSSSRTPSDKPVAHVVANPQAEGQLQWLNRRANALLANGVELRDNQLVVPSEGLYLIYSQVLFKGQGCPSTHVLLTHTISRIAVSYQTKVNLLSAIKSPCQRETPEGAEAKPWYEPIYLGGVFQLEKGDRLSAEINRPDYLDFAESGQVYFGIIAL
Source text: as §1

TLR-4 = TLR-4 (Homo sapiens, UniProt O00206); test: Preliminary data in atopic dermatitis: TLR-4
TLR-4, sequence (O00206 24-839, species assumed): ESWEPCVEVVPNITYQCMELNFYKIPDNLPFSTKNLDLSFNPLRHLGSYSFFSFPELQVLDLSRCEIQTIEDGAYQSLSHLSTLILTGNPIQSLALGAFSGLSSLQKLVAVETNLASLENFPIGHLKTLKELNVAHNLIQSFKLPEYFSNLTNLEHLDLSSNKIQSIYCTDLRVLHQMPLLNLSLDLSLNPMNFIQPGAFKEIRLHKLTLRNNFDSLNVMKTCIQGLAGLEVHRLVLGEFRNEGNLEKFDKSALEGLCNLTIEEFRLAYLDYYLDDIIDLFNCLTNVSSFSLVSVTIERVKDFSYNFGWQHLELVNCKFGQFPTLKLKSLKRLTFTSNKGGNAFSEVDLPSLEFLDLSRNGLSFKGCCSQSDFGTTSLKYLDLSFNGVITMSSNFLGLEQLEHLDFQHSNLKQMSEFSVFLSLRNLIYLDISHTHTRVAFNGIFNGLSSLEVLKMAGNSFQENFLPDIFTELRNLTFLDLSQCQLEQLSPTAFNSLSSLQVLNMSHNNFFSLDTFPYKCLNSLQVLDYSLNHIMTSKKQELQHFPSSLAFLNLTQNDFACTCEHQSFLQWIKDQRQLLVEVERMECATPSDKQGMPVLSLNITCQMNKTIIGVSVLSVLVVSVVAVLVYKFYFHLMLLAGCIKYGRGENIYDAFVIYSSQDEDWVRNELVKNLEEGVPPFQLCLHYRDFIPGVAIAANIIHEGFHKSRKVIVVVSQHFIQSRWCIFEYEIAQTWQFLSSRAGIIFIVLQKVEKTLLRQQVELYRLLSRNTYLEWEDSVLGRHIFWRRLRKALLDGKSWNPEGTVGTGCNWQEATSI

MMP = test: Preliminary data in atopic dermatitis: MMP
HSV1 = test: Preliminary investigations: symptoms of HSV1; type: in vivo
Source text: Without wishing to be bound by any one theory, it is believed that strontium's ability to block NF-Kappa B contributes to minimizing the symptoms associated with an active infection. As mentioned above, HSV 1 and 2 require the activation of NF-Kappa B for de novo virus synthesis. By blocking NF-Kappa B, strontium is essentially stopping the infection at an early stage.

[4] = Preliminary investigations: pain of post herpetic neuralgia; type: in vivo
[5] = Topical application to skin for pain, itch, irritation; type: in vivo; settings: simple solutions of strontium and water, no penetration enhancer
Source text: Without wishing to be bound by any one theory, it is believed that opening ion channels in the presence of strontium, allows greater levels of strontium to enter the nociceptor and shut down or decrease its activity. This is due to (1) strontium having a higher affinity than calcium for flowing into the ion channels and (2) the excessive amount of strontium ions present as compared to the physiological levels of calcium present. Furthermore, cysteine based antioxidants and strontium target different mechanisms to block nociception. The combination results in a synergistic affect
Most skin products are “pH balanced” to help maintain a healthy skin pH. […] While not wishing to be bound by any one theory, it is believed that the application of a low pH formulation on the skin activates acid sensitive ion channels such as ASIC and TRPV1 resulting in the opening of ion channels on the nociceptor. The opening of the ion channels in the presence of strontium allows greater levels of strontium to enter the nociceptor and shut down or decrease it activity. This is due to (1) strontium having a higher affinity than calcium for flowing into the ion channels and (2) the excessive amount of strontium ions present as compared to the physiological levels of calcium present. […]

TCN [6] = settings: strontium substitutes for calcium; cited from earlier work
nociceptor = settings: cited from earlier work

itching and erythema of skin [1]: did not redden or become itchy
flush/blush response ([1]; compared with niacin): does not activate
SMILES: CC(O)CC(=O)O (stereo not drawn) [BHB, beta-hydroxybutyric acid]

itching and erythema of skin [1]: began to redden and itch
SMILES: O=C(O)c1cccnc1 [niacin, nicotinic acid, reference compound]

SMILES: O.O.O.O.O.O.[Cl-].[Cl-].[Sr+2] [strontium chloride hexahydrate]
emulsion stability [2]: tend to be unstable and separate

SMILES: O=[N+]([O-])[O-].O=[N+]([O-])[O-].[Sr+2] [strontium nitrate]
emulsion stability [2]: tend to be unstable and separate

SMILES: [Sr+2] [strontium]
suppression of burning pain and stinging (TCN [3]): ≥ 80%
blocking of IL-17 (IL-17): blocking
blocking of TNF-alpha (TNF-alpha): blocking
blocking of TLR-4 activity (TLR-4): can block
blocking of MMP activity (MMP): can block
pain, itch, and rash/blister formation associated with HSV1 (HSV1): can reduce and or eliminate
pain associated with PHN [4]: can reduce or block
reducing pain and irritation [5]: can be effective
reduction of amplitude of synchronous neurotransmitter release (TCN [6]): more than 90%
ability to induce CICR relative to calcium (nociceptor): over a hundred-fold less active
concentration reached in the ER, greater than calcium (nociceptor; not told): more than 150%
